Experimental data taken from a melting point compilation (Tetko et al.; mined from patent text by program, amines drawn as free bases though some values may be those of a salt).

Structure (SMILES) | melting point
COC(=O)c1cc(-c2ccc(OCc3ccccc3)cc2)c(=O)n2ccc3ccsc3c12 | 169 to 171 °C
Clc1cn2cc(Br)ccc2n1 | 155 to 159 °C
O=c1c2c(Cl)cc(Cl)cc2n(Cc2ccccc2)c(=O)n1-c1ccccc1 | 169 to 174 °C
C=CCOCc1c(CO)sc2c(=O)c(C(=O)NCc3ccc(Cl)cc3)cn(C)c12 | 184 to 185 °C
CCN(CC)C(=O)c1cccc(-c2nc(=O)c3ccccc3s2)n1 | 194 °C
NC1(C(=O)O)CC(OC(=O)Nc2ccccc2F)C2C(C(=O)O)C21 (centres undefined) | 232 to 233 °C
COc1cc(CO)ccc1OCc1nc(N2CCOCC2)sc1C | 121 to 122 °C
C=CC(=O)[C@H](Cc1cc(F)cc(F)c1)NC(=O)OC(C)(C)C | 115 °C
CCN(CC)c1ccc(-c2cc(-c3ccc(C(=O)O)cc3)ccc2OCCCO)cc1C | 208 °C
CC1Oc2c(cc(Cl)cc2C(=O)O)NC1=O (centres undefined) | 319 to 320 °C
CSC1NC(=O)N(c2ccc(C)cc2)C(=O)N1 | 276 to 278 °C
COc1ccc(Nc2nnc(Cc3ccncc3)c3ccccc23)cc1 | 223 to 224 °C
CNC(=O)n1sc(Cc2ccccc2)nc1=O | 146 °C
CN(Cc1ccccc1)Cc1c(-c2ccc(NC(=O)NO)cc2)sc2c1c(=O)n(-c1ccccc1)c(=O)n2Cc1c(F)cccc1F | 164 to 165 °C
COc1cc(C(=O)N(C(C)C)C(C)C)ccc1OCCCCOc1ccc(C(N)=NO)cc1 | 63 to 65 °C
Fc1ccc(C2=CC(=C(C(F)(F)F)C(F)(F)F)N=C2c2ccc(F)cc2)cc1 | 145 to 146 °C
CS(=O)c1nn(Cc2cccc(C(F)(F)F)c2)c(N)c1C#N (centres undefined) | 143 °C
N#CCc1cccc2c(=O)cc(C3(Br)CCCCC3)oc12 | 144 to 145 °C
Sc1nc2cc3ccccc3cc2[nH]1 | 303 to 305 °C
O=C(NCc1ccccn1)Nc1cc(N2CC(c3ccccc3)OC2=O)ccn1 (centres undefined) | 190 to 191 °C
COC(=O)c1ccc(CC(C)NCC(O)c2ccc(O)c(NS(C)(=O)=O)c2)cc1 (centres undefined) | 133 to 140 °C
C=CCNc1cc(OCC=C)c(C(=O)O)cc1Cl | 83.5 to 86 °C
Cc1cc(Oc2c(Cl)cc(C(F)(F)F)cc2Cl)nn1C(=O)NOCc1ccccc1 | 98 to 100 °C
CCCCc1ncc(/C=C(\Cc2ccc(C)s2)c2nnn[nH]2)n1Cc1ccccc1Cl | 151 to 153 °C
O=C(Nc1ccnc(C(=O)NO)c1)c1ccccc1 | 175 to 184 °C

Structure (SMILES) | melting point
NCC(O)c1ccc(C(F)(F)F)cc1 (centres undefined) | 138 to 140 °C
CC(C)(C)OC(=O)Nc1ccc(-c2ccc(OCc3ccccc3)nc2)cc1[N+](=O)[O-] | 119 to 122 °C
Oc1ccc(-c2c(Cl)c3cc(O)ccc3n2Cc2ccc(OCCN3CCCC3)cc2)cc1 | 233 to 235 °C
CC(C)NC(=O)CCC(=O)c1ccccc1 | 118 to 121 °C
CCCCC1C=C(n2c3ccccc3c3ccccc32)c2ccccc2N1C(=O)c1ccc(OC)c(OC)c1 (centres undefined) | 174 to 175 °C
O=C1C2C[C@@H](OCc3ccccc3)CN2C(=O)N1c1ccc([N+](=O)[O-])c2ccccc12 (some centres undefined) | 120 to 122 °C
CCCS(=O)(=O)c1ccc(NS(=O)(=O)c2cccs2)c2[nH]c(C3=NCCS3)cc12 | 101 to 102 °C
Ic1ccc(-c2cccnc2)cc1 | 112 to 115 °C
CC1(C)CCCC2(C)CC(O)CCC12 (centres undefined) | 53 to 54 °C
CS(=O)(=O)c1ccc(-c2ccc(I)n2-c2ccc(F)cc2)cc1 | 174 to 176 °C
CC(C)(C)OC(=O)NCCc1ccc(N)cc1 | 71 to 73 °C
COc1cc(C)c(Cc2cnc(N)nc2N)cc1OC | 223 to 225 °C
CCCCCC(C)(O)C=CC1CCC(=O)C1CCCCCCC(=O)O (centres undefined) | 61 to 62 °C
CCCC(=CC(=O)O)CCC | 20 °C
O=C(OCc1ccccc1)C1CSC2C(N=Cc3ccc([N+](=O)[O-])cc3)C(=O)N12 (centres undefined) | 95 to 96 °C
CC(C)(C)c1nc2cc(CC#N)ccc2s1 | 50 to 52 °C
COc1cc(Nc2c(C#N)cnc3cc(-c4ccc(CN5CCCCC5)s4)ccc23)c(Cl)cc1Cl | 155 to 160 °C
COC(=O)OC(C(=O)O)c1ccccc1 (centres undefined) | 103 to 105 °C
CC(Cl)(Cl)C1(O)NC(=O)C(=O)N1 | 220 °C
O=C1c2ccccc2C(=O)N1N1C2CCCCC21 (centres undefined) | 75 to 77 °C
COc1ccc2c(c1)-c1noc(N3CCNCC3)c1CC2 | 86 to 88 °C
CCOC(=O)C(=CNc1sc(I)cc1C(=O)OC)C(=O)OCC | 163 to 164 °C
CC(C)(C)OC(=O)Nc1cc(OC(C)(C)C)c(-c2ccccc2F)cc1N | 130 °C
CC(=O)OC1CCC2(C)C(=CCC3C2CCC2(C)C(C(C)CC(F)(F)CC(C)(C)O)CCC32)C1 (centres undefined) | 168 to 170 °C
CC(=O)c1cnn2ccccc12 | 96 to 97 °C

Structure (SMILES) | melting point
O=C(O)c1ncn2c(C(F)(F)F)cc(-c3ccc(C(F)(F)F)cc3)nc12 | 231 °C
CCOc1cc2c(cc1OC)C(c1ccc(C(=O)N3CCOCC3)cc1)=N[C@@H]1CCOC[C@H]21 | 116 to 120 °C
NC(=O)C1CCc2sc3ccccc3c2C1 (centres undefined) | 153 to 155 °C
CSc1cc(SC)c(SC)cc1SC | 127 to 129 °C
COc1ccc2c(Cl)nc(Cl)nc2c1OC | 153 to 155 °C
Cc1c(Nc2ccc([N+](=O)[O-])cc2C(=O)O)cccc1C(F)(F)F | 244 to 245 °C
CSc1nccc(C)c1NC(=O)CCCCCCCCSc1nc2ccccc2s1 | 88 to 90 °C
CN(C)CCc1c(CC(C#N)(c2ccccc2)c2ccccc2)c2ccccc2n1C | 133 to 136 °C
CN1CCC(Nc2nccc(Oc3ccc(NC(=O)c4cc(F)cc(N5CCOCC5)c4)c4ccccc34)n2)CC1 | 128 to 129 °C
CCCc1c(O)c(C(C)=O)cc(Cl)c1OCCCOc1ccc2ccc(OCC(=O)OC)cc2c1C(C)=O | 121 to 124 °C
CCOC1=NC(N)=C(C(=O)OC)C(c2ccccc2F)C1C(=O)OC (centres undefined) | 180 °C
O=C(O)Cc1ccc2c(c1)NC(=O)CO2 | 237 to 239 °C
COC(=O)C1=C(Nc2ccccc2N)CSC1 | 101 °C
COC(=O)CCn1c(=O)n(CCN2CCN(c3ccc(F)cc3)CC2)c(=O)c2cscc21 | 165 to 166 °C
COC(=O)C1=C(C)Nc2ccccc2SC1c1ccccc1C(F)(F)F (centres undefined) | 165 to 166 °C
COc1ccc(C[C@H](N[C@@H](Cc2ccccc2)C(=O)O)C(=O)NCCc2ocnc2C(=O)O)cc1 | 103 to 106 °C
O=C(NCC1CCCC1)c1ccc2[nH]ccc2c1 | 110 to 112 °C
CCOC(=O)C12CC1CN(S(=O)(=O)c1ccc(C)cc1)C2c1ccccc1 (centres undefined) | 123 to 124 °C
CCCn1nc2c(N)nc3ccccc3c2c1CCCCS(N)(=O)=O | 211 to 213 °C
CN(C(=O)c1ccc2nonc2c1)C1CCOCC1 | 160 to 162 °C
O=C(O)Cc1cccc2c(-c3ccc(F)cc3)onc12 | 170 to 171 °C
COC[C@H]1O[C@H](ONC(=O)c2nc(-c3ccc(Cl)c(OC)c3F)cc(N)c2Cl)[C@H](OC)[C@@H](OC)[C@@H]1OC | 184 to 187 °C
N#Cc1c(-c2ccc(Cl)c(Cl)c2)cc(C2CC2)[nH]c1=O | 290 to 295 °C
Cc1cccc(-c2ncc(N)c(=O)n2CC(=O)NC(Cc2ccccc2)C(=O)C(F)(F)C(=O)NCC(=O)O)c1 (centres undefined) | 128 to 132 °C
COc1cc(Nc2nc(-c3ccc(Cl)cc3)cc(C(F)(F)F)n2)ccc1-n1cnc(C)c1 | 202 to 204 °C

Structure (SMILES) | melting point
Cn1nc(-c2c(Cl)cccc2Cl)nc1-c1cccs1 | 161 to 163 °C
COCC1CN(c2ccc(C3CCC4(CC3)OCCO4)cn2)C(=O)O1 (racemic) | 117 to 121 °C
COc1nc(-c2c(F)cccc2F)nn1-c1ccccc1C(F)(F)F | 118 to 119 °C
O=S(=O)(c1ccc(Oc2ccccc2)cc1)c1ccc(Oc2ccccc2)cc1 | 142 to 143 °C
COc1c(C(O)CNC(C)(C)Cc2ccccc2)ccc(O)c1O (centres undefined) | 149 to 150 °C
CC(c1oc2ccccc2c(=O)c1-c1cccc(F)c1)n1nc(-c2ccc(CN)s2)c2c(N)ncnc21 (centres undefined) | 275 to 278 °C
CCCc1nc(Cl)c(C(=O)O)n1Cc1ccc(C2(C(=O)OCC)CC=CC2)s1 | 114 to 115 °C
CC1C(=O)c2ccccc2C1NCCc1ccccc1 (centres undefined) | 82 to 83 °C
O=C(O)c1ccccc1Sc1ccc([N+](=O)[O-])cc1[N+](=O)[O-] | 179 to 181 °C
CCOc1nc(Nc2cccc(C(F)(F)F)c2)nc(N2CCN(C(=O)c3ccn(CC)n3)CC2)n1 | 145 to 148 °C
CC(C)c1ccc2c(c1)c(S(=O)(=O)c1ccccc1)c(CC(C)(C)C(=O)O)n2Cc1ccc(Cl)cc1 | 169 to 172 °C
O=C(/C=C/[C@@H]1[C@H]2CC(=O)O[C@H]2C[C@H]1OC(=O)c1ccccc1)CCc1ccccc1 | 119 to 120 °C
Cc1oc(C)c(C(=O)OC2CC(C)(C)NC(C)(C)C2)c1C | 54 to 58 °C
c1ccc(-c2nnc3c4c(c(OCc5ccccn5)nn23)CCCC4)cc1 | 194 °C
CC(C)(C)OC(=O)n1c2ccccc2c(=O)n1Cc1cccc(N)c1 | 155 °C
CCOc1cc(CN2CCc3cc(O)ccc3C2)cc(OCC)c1OCC | 140 to 142 °C
CC(C)(C)OC(=O)N[C@H]1CCc2cc(-c3ccccc3)ccc2NC1=O | 198 to 200 °C
CCCOc1ccc2cc(-c3ccc4c(c3)C=C(C(=O)Nc3ccc(CN(C)C5CCOCC5)cc3)CCS4(=O)=O)oc2c1 | 215 to 216 °C
c1ccc(CCN2CCN(c3nc4cccc5c4n3CCC5)CC2)cc1 | 112 to 113 °C
O=C(N[C@@H](CSC(=O)c1ccccc1)C(=O)O)c1ccccc1 | 183 to 185 °C
CCSC(C)(C)C(=O)CC(=O)Nc1cc(NC(=O)CCCOc2ccc(C(C)(C)CC)cc2C(C)(C)CC)ccc1Cl | 121 to 122 °C
CSc1ncc2ccc(Cl)nc2n1 | 201 to 203 °C
COc1ccc(N(C=C(C#N)C#N)N=C(C#N)C#N)cc1 | 143 to 145 °C
COc1ccc([C@@H]2Sc3cc(Cl)ccc3N(CCCCl)C(=O)[C@@H]2O)cc1 (relative stereo) | 103 to 106 °C
